Test results: patent publication US20160115540A1, “PRODRUGS AND DRUGS” (Biogen MA Inc., priority 2013, published 2016)
Counter-ions that a name gives are not always drawn.

Legend:
cerebellum = experiment: Transcriptional profiling on Affymetrix GeneChips, single dose, naïve mice: cerebellum; format: in vivo, C57BL/6 mice; conditions: for Number of differentially expressed genes identified: Cerebellum: Naïve, Single Dose
Method: In vivo, DMF is rapidly metabolized to monomethyl fumarate (MMF).
Animals were exposed to CO2 and whole blood collected via cardiac puncture. Two 100 μl aliquots of whole blood were collected in 1.5 mL microcentrifuge tubes and snap frozen in liquid nitrogen. Peripheral (liver, spleen, kidney and jejunum) and CNS brain (cerebellum, hippocampus, striatum and cortex) tissues were harvested and snap frozen in liquid nitrogen, with special care taken to collect tissues of similar size and from the same location. All samples were stored at −80° C. until RNA extraction was conducted.
For RNA preparation, frozen tissues were placed in 2 mL RNAse-free 96-well blocks with 1.5 mL QIAzol Lysis Reagent (QIAgen) and a 3.2 mm stainless steel bead (BioSpec Products, Bartlesville, Okla.). Tissues were disrupted for four cycles of 45 seconds in a Mini-Beadbeater (Biospec Products). RNA was extracted in chloroform and the aqueous phase was mixed with an equal volume of 70% ethanol. Extracted RNA was applied to RNeasy 96 plates and purified by the spin method according to the manufacturer's protocol (RNeasy 96 Universal Tissue Protocol, QIAgen, Hilden Germany).
Automated sample amplifications and biotin labelings were carried out using the NuGEN Ovation RNA Amplification system V2 (Cat #3100), Ovation WB reagent (Cat #1300) and Encore Biotin module (Cat #4200) (NuGEN Technologies, Inc, San Carlos, Calif.) according to manufacturer's recommendations using an Arrayplex automated liquid handler (Beckman Coulter, Indianapolis, Ind.). Two micrograms of biotin labeled sscDNA probe were hybridized to Affymetrix GeneChip Affymetrix HT_MG-430_PM plate arrays with modified conditions as described in Allaire et al. Washing and staining of the hybridized arrays were completed as described in the GeneChip Expression analysis technical manual for HT plate arrays using the Genechip® Array Station (Affymetrix, Santa Clara, Calif.) with modifications as described in Allaire et al. The processed GeneChip® plate arrays were scanned using GeneTitan scanner (Affymetrix, Santa Clara, Calif.).
Affymetrix scans were subject to quality control (QC) measures. These tests included a visual inspection of the distribution of raw signal intensities and an assessment of RNA degradation, relative log expression (RLE), and normalized unsealed standard error (NUSE). All sample scans that passed these QC metrics were included in the analysis.
All CEL files were subjected to GC-content-based Robust Multi-array Average (GCRMA) normalization (version 2.20.0) (Irizarry R A, et al. Nucleic Acids Res 2003; 31:e15; Li C, et al. Genome Biol 2001; 2:[…]0032). Expression levels were log (base 2) transformed.
All calculations and analyses were carried out using R (version 2.11.1) and Bioconductor computational tools (Gentleman R. Springer Science+Business Media 2005).

spinal cord = experiment: Transcriptional profiling, multi-dosing regimen, naïve mice: spinal cord; format: in vivo; conditions: for FC, Depp (1433836_PM_a_at) / FC, Depp (1433837_PM_at): SpinalCord, multi-dosing; for Number of differentially expressed genes identified: Spinal Cord: Table 13: Naïve, Single Dose (so in the source), 12 h after last dosing
Method: In vivo, DMF is rapidly metabolized to monomethyl fumarate (MMF). […] Animals were exposed to CO2 and whole blood collected via cardiac puncture. Two 100 μl aliquots of whole blood were collected in 1.5 mL microcentrifuge tubes and snap frozen in liquid nitrogen. Peripheral (liver, spleen, kidney and jejunum) and CNS brain (cerebellum, hippocampus, striatum and cortex) tissues were harvested and snap frozen in liquid nitrogen, with special care taken to collect tissues of similar size and from the same location. All samples were stored at -80° C. until RNA extraction was conducted. For RNA preparation, frozen tissues were placed in 2 mL RNAse-free 96-well blocks with 1.5 mL QIAzol Lysis Reagent (QIAgen) and a 3.2 mm stainless steel bead (BioSpec Products, Bartlesville, Okla.). Tissues were disrupted for four cycles of 45 seconds in a Mini-Beadbeater (Biospec Products). RNA was extracted in chloroform and the aqueous phase was mixed with an equal volume of 70% ethanol. Extracted RNA was applied to RNeasy 96 plates and purified by the spin method according to the manufacturer's protocol (RNeasy 96 Universal Tissue Protocol, QIAgen, Hilden Germany). […] Two micrograms of biotin labeled […] probe were hybridized to Affymetrix GeneChip Affymetrix HT_MG-430_PM plate arrays with modified conditions as described in […] et al. Washing and staining of the hybridized arrays were completed as described in the GeneChip Expression analysis technical manual for HT plate arrays using the Genechip® Array Station (Affymetrix, Santa Clara, Calif.) with modifications as described in […] et al. The processed GeneChip® plate arrays were scanned using GeneTitan scanner (Affymetrix, Santa Clara, Calif.). Affymetrix scans were subject to quality control (QC) measures. These tests included a visual inspection of the distribution of raw signal intensities and an assessment of RNA degradation, relative log expression (RLE), and normalized unsealed standard error (NUSE). All sample scans that passed these QC metrics were included in the analysis. All CEL files were subjected to GC-content-based Robust Multi-array Average (GCRMA) normalization (version 2.20.0) (Irizarry R A, et al. Nucleic Acids Res 2003; 31:e15; Li C, et al. […] Stat Appl Genet Mol Biol 2004; 3:Article3). […] Springer Science+Business Media 2005). Changes in gene expression were studied by applying a linear modeling approach to fit gene expression levels according to the defined groups of samples (e.g. DMF-, MMF-, and Vehicle-treated animals) and Bayesian posterior error analysis as implemented by Smyth (Smyth G K. Stat Appl Genet Mol Biol 2004; 3:Article3). The comparisons considered included: DMF-vs-MMF, DMF-vs-Vehicle, and MMF-vs-Vehicle. […] Very few DEGs are observed in blood and tissues derived from the central nervous system (brain, cerebellum, cortex, striatum, and spinal cord).

[1] = 100 mpk, vs Vehicle, 2 h after last dosing
[2] = 100 mpk, vs Vehicle, 7 h after last dosing
[3] = 100 mpk, vs Vehicle, 12 h after last dosing
[4] = SPINAL CORD, 100DMF-vs-100MMF, naïve multidose
[5] = cerebellum, 100MMF-vs-Veh, 12 h

COC(=O)/C=C/C(=O)OC [DMF, dimethyl fumarate]
Number of differentially expressed genes identified: Cerebellum (cerebellum; 100 mpk DMF-vs-100 mpk MMF, 2 h after last dosing): 0
Number of differentially expressed genes identified: Cerebellum (cerebellum; 100 mpk DMF-vs-100 mpk MMF, 7 h after last dosing): 0
Number of differentially expressed genes identified: Cerebellum (cerebellum; 100 mpk DMF-vs-100 mpk MMF, 12 h after last dosing): 0
Number of differentially expressed genes identified: Cerebellum (cerebellum; [1]): 0
Number of differentially expressed genes identified: Cerebellum (cerebellum; [2]): 0
Number of differentially expressed genes identified: Cerebellum (cerebellum; [3]): 0
differentially expressed genes (cerebellum; cerebellum, 100DMF-vs-100MMF, 2 h): None
differentially expressed genes (cerebellum; cerebellum, 100DMF-vs-100MMF, 7 h): None
differentially expressed genes (cerebellum; cerebellum, 100DMF-vs-100MMF, 12 h): None
differentially expressed genes (cerebellum; cerebellum, 100DMF-vs-Veh, 2 h): None
differentially expressed genes (cerebellum; cerebellum, 100DMF-vs-Veh, 7 h): None
differentially expressed genes (cerebellum; cerebellum, 100DMF-vs-Veh, 12 h): None
FC 8430408G22Rik (1433836_PM_a_at) (spinal cord; [4]): 1.92
FC 8430408G22Rik (1433837_PM_at) (spinal cord; [4]): 1.65
FC Mtmr2 (1425459_PM_at) (spinal cord; [4]): 1.57
FC Tle4 (1430384_PM_at) (spinal cord; [4]): −1.55
FC 8430408G22Rik (1433837_PM_at) (spinal cord; SPINAL CORD, 100DMF-vs-Veh, naïve multidose): 1.73
FC, Depp (1433836_PM_a_at) (spinal cord; DMF-vs-MMF): 1.92
FC, Depp (1433837_PM_at) (spinal cord; DMF-vs-MMF): 1.65
FC, Depp (1433836_PM_a_at) (spinal cord; DMF-vs-Vehicle): 1.66
FC, Depp (1433837_PM_at) (spinal cord; DMF-vs-Vehicle): 1.73
Number of differentially expressed genes identified: Spinal Cord (spinal cord; 100 mpk DMF-vs-90 mpk MMF): 4
Number of differentially expressed genes identified: Spinal Cord (spinal cord; 100 mpk DMF-vs-Vehicle): 1
DEPP gene induction (mRNA) (spinal cord; spinal cord, multi-dosing regimen, naïve mice): robustly induced

COC(=O)/C=C/C(=O)O [MMF, monomethyl fumarate]
Number of differentially expressed genes identified: Cerebellum (cerebellum; [1]): 2
Number of differentially expressed genes identified: Cerebellum (cerebellum; [2]): 0
Number of differentially expressed genes identified: Cerebellum (cerebellum; [3]): 3
FC Csnk2a1 (1419034_PM_at) (cerebellum; cerebellum, 100MMF-vs-Veh, 2 h): −1.65
FC Trak2 (1429607_PM_at) (cerebellum; cerebellum, 100MMF-vs-Veh, 2 h): −1.55
FC Hif3a (1425428_PM_at) (cerebellum; [5]): 1.58
FC Pnpla7 (1451361_PM_a_at) (cerebellum; [5]): 1.52
FC Vnn1 (1447845_PM_s_at) (cerebellum; [5]): 1.83
FC, Depp (1433836_PM_a_at) (spinal cord; MMF-vs-Vehicle): −1.16
FC, Depp (1433837_PM_at) (spinal cord; MMF-vs-Vehicle): 1.05
Number of differentially expressed genes identified: Spinal Cord (spinal cord; 90 mpk MMF-vs-Vehicle): 0
